The results in this text go back to publication PMC9054634 (RSC Advances, 2020).

The target in this test is E. coli β-glucuronidase (GUS) (Escherichia coli, UniProt P05804). In words: pNPG hydrolysis by purified GUS, UPLC-UV, Lineweaver-Burk kinetics. It is filed as biochemical.
Sequence of E. coli β-glucuronidase (GUS) (P05804 whole entry): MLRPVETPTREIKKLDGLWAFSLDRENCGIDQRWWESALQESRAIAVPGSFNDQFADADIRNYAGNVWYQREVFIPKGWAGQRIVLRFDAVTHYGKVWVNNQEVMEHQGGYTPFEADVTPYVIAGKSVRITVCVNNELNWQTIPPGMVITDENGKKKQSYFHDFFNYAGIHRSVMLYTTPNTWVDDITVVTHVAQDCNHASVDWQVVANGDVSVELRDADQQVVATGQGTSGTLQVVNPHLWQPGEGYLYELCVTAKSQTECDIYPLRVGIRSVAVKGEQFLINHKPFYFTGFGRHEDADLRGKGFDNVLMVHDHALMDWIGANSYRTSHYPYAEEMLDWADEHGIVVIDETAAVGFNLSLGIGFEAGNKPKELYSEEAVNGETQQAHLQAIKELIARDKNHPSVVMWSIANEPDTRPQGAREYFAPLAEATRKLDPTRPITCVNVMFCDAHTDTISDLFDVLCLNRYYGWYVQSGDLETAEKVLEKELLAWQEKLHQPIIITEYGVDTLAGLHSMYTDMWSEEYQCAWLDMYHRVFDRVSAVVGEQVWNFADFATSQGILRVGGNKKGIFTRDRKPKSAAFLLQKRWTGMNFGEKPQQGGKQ
`CN1CCN(CCCN2c3ccccc3Sc3ccc(C(F)(F)F)cc32)CC1` [TFP, Trifluoperazine]: the affinity, expressed as Ki, was 56.9 µM.
In the case of `C=CCc1ccc(O)c(-c2cc(CC=C)ccc2O)c1` [Mag, Magnolol], the inhibition constant (Ki) (in general, a dissociation constant, usually derived from enzyme kinetics or from competition with a known ligand) came out at 16.6 µM.
For `C[C@]12CC[C@@H]3c4ccc(O)cc4CC[C@H]3[C@@H]1CC[C@@H]2O` [E2, Estradiol] the value was 31.4 µM.
